According to patent US20100204265A1 (priority 2009, published 2010):
pEC50: −log10 of the molar value.

The compounds below were run on ET (Huh-lucubineo-ET) cell line harboring I389luc-ubi-neo/NS3-3′/ET HCV replicon (assay: Replicon assay (HCV replicon, luciferase readout)). Settings: Hepatitis C virus.
Type: cell-based
Summary of the method: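 Compounds at 10-point 2-fold dilutions (overall 0.1 nM to […], 0.5% DMSO) were applied to ET cells carrying a luciferase-neo HCV replicon, seeded a day earlier. After 48-72 hours, luciferase-based % inhibition was fitted with a Hill equation for EC50, and parallel WST-1 readings gave TC50.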
In the case of `O=C(Cc1cn2cc(-c3ccoc3)cc(C(F)(F)F)c2n1)N1CCCC1c1cccs1` (stereo not drawn) [Compound 188, 2-(6-Furan-3-yl-8-trifluoromethyl-imidazo[1,2-a]pyridin-2-yl)-1-(2-thiophen-2-yl-pyrrolidin-1-yl)-ethanone], the pEC50 was < 4.30. For `O=C(Cc1cn2cc(-c3ccoc3)cc(C(F)(F)F)c2n1)NS(=O)(=O)c1cccs1` [Compound 189, Thiophene-2-sulfonic acid [2-(6-furan-3-yl-8-trifluoromethyl-imidazo[1,2-a]pyridin-2-yl)-acetyl]-amide], the pEC50 was < 4.30. In the case of `CS(=O)(=O)NC1CN(C(=O)Cc2cn3cc(-c4ccoc4)cc(C(F)(F)F)c3n2)C1` [Compound 190, N-{1-[2-(6-Furan-3-yl-8-trifluoromethyl-imidazo[1,2-a]pyridin-2-yl)-acetyl]-azetidin-3-yl}-methanesulfonamide], the pEC50 was < 4.30. For `O=C(Cc1cn2cc(-c3ccoc3)cc(C(F)(F)F)c2n1)N1CC=C(c2nccs2)CC1` [Compound 191, 2-(6-Furan-3-yl-8-trifluoromethyl-imidazo[1,2-a]pyridin-2-yl)-1-(4-thiazol-2-yl-3,6-dihydro-2H-pyridin-1-yl)-ethanone], the pEC50 was < 4.30. For `O=C(Cc1cn2cc(-c3ccoc3)cc(C(F)(F)F)c2n1)NCCc1ccccc1` [Compound 192, 2-(6-Furan-3-yl-8-trifluoromethyl-imidazo[1,2-a]pyridin-2-yl)-N-phenethyl-acetamide], the pEC50 was < 4.30. In the case of `O=C(NC1CCC(c2ccccc2)CC1)c1nc2c(C(F)(F)F)cc(-c3ccoc3)cn2c1Cl` (stereo not drawn) [Compound 193, 3-Chloro-6-furan-3-yl-8-trifluoromethyl-imidazo[1,2-a]pyridine-2-carboxylic acid (4-phenyl-cyclohexyl)-amide], the pEC50 was 5.60. `O=C(c1ccccc1)C1CCN(C(=O)c2nc3c(C(F)(F)F)cc(-c4ccoc4)cn3c2Cl)CC1` [Compound 194, (4-Benzoyl-piperidin-1-yl)-(3-chloro-6-furan-3-yl-8-trifluoromethyl-imidazo[1,2-a]pyridin-2-yl)-methanone] gave a pEC50 of 6.05. With `O=C(c1nc2c(C(F)(F)F)cc(-c3ccoc3)cn2c1Cl)N1CCC(N2CCCC2)CC1` [Compound 195, (3-Chloro-6-furan-3-yl-8-trifluoromethyl-imidazo[1,2-a]pyridin-2-yl)-(4-pyrrolidin-1-yl-piperidin-1-yl)-methanone] the pEC50 was < 4.30. With `O=C(c1nc2c(C(F)(F)F)cc(-c3ccoc3)cn2c1Cl)N1CCC(n2ccnc2)CC1` [Compound 197, (3-Chloro-6-furan-3-yl-8-trifluoromethyl-imidazo[1,2-a]pyridin-2-yl)-(4-imidazol-1-yl-piperidin-1-yl)-methanone] the pEC50 was 5.46. In the case of `O=C(c1nc2c(C(F)(F)F)cc(-c3ccoc3)cn2c1Cl)N1CC=C(C#Cc2cccnc2)CC1` [Compound 198, (3-Chloro-6-furan-3-yl-8-trifluoromethyl-imidazo[1,2-a]pyridin-2-yl)-(4-pyridin-3-ylethynyl-3,6-dihydro-2H-pyridin-1-yl)-methanone], the pEC50 was 4.84. For `CC(C)(C)C#CC1=CCN(C(=O)c2nc3c(C(F)(F)F)cc(-c4ccoc4)cn3c2Cl)CC1` [Compound 199, (3-Chloro-6-furan-3-yl-8-trifluoromethyl-imidazo[1,2-a]pyridin-2-yl)-[4-(3,3-dimethyl-but-1-ynyl)-3,6-dihydro-2H-pyridin-1-yl]-methanone], the pEC50 was < 4.30. `O=C(c1nc2c(C(F)(F)F)cc(-c3ccoc3)cn2c1Cl)N1CC=C(C#CC2CCCC2)CC1` [Compound 200, (3-Chloro-6-furan-3-yl-8-trifluoromethyl-imidazo[1,2-a]pyridin-2-yl)-(4-cyclopentylethynyl-3,6-dihydro-2H-pyridin-1-yl)-methanone] was tested, and the pEC50 was < 4.30. With `O=C(c1nc2c(C(F)(F)F)cc(-c3ccoc3)cn2c1Cl)N1CC=C(c2ncccc2O)CC1` [Compound 201, (3-Chloro-6-furan-3-yl-8-trifluoromethyl-imidazo[1,2-a]pyridin-2-yl)-(3-hydroxy-3′,6′-dihydro-2′H-[2,4′]bipyridinyl-1′-yl)-methanone] the pEC50 was 4.82. `O=C(c1nc2c(C(F)(F)F)cc(-c3ccoc3)cn2c1Cl)N1CC=C(c2ncccc2Cl)CC1` [Compound 202, (3-Chloro-3′,6′-dihydro-2′H-[2,4′]bipyridinyl-1′-yl)-(3-chloro-6-furan-3-yl-8-trifluoromethyl-imidazo[1,2-a]pyridin-2-yl)-methanone] gave a pEC50 of 6.48. Compound `O=C(c1nc2c(C(F)(F)F)cc(-c3ccoc3)cn2c1Cl)N1CC=C(c2cncc(F)c2)CC1` [Compound 203, (3-Chloro-6-furan-3-yl-8-trifluoromethyl-imidazo[1,2-a]pyridin-2-yl)-(5-fluoro-3′,6′-dihydro-2′H-[3,4′]bipyridinyl-1′-yl)-methanone] has a pEC50 of 6.01. With `O=C(c1nc2c(C(F)(F)F)cc(-c3ccoc3)cn2c1Cl)N1CC=C(c2cccc(F)n2)CC1` [Compound 204, (3-Chloro-6-furan-3-yl-8-trifluoromethyl-imidazo[1,2-a]pyridin-2-yl)-(6-fluoro-3′,6′-dihydro-2′H-[2,4′]bipyridinyl-1′-yl)-methanone] the pEC50 was 5.43. `O=C(c1nc2c(C(F)(F)F)cc(-c3ccoc3)cn2c1Cl)N1CC=C(c2ncccc2C(F)(F)F)CC1` [Compound 205, (3-Chloro-6-furan-3-yl-8-trifluoromethyl-imidazo[1,2-a]pyridin-2-yl)-(3-trifluoromethyl-3′,6′-dihydro-2′H-[2,4′]bipyridinyl-1′-yl)-methanone] gave a pEC50 of 4.74. For `Cc1ccnc(C2=CCN(C(=O)c3nc4c(C(F)(F)F)cc(-c5ccoc5)cn4c3Cl)CC2)c1F` [Compound 206, (3-Chloro-6-furan-3-yl-8-trifluoromethyl-imidazo[1,2-a]pyridin-2-yl)-(3-fluoro-4-methyl-3′,6′-dihydro-2′H-[2,4′]bipyridinyl-1′-yl)-methanone], the pEC50 was 5.23. `Cc1ccc(F)c(C2=CCN(C(=O)c3nc4c(C(F)(F)F)cc(-c5ccoc5)cn4c3Cl)CC2)n1` [Compound 207, (3-Chloro-6-furan-3-yl-8-trifluoromethyl-imidazo[1,2-a]pyridin-2-yl)-(3-fluoro-6-methyl-3′,6′-dihydro-2′H-[2,4′]bipyridinyl-1′-yl)-methanone] gave a pEC50 of 4.75. `O=C(c1nc2c(C(F)(F)F)cc(-c3ccoc3)cn2c1Cl)N1CC=C(c2ncncc2F)CC1` [Compound 208, (3-Chloro-6-furan-3-yl-8-trifluoromethyl-imidazo[1,2-a]pyridin-2-yl)-[4-(5-fluoro-pyrimidin-4-yl)-3,6-dihydro-2H-pyridin-1-yl]-methanone] showed a pEC50 of 6.51. Work on `O=C(c1nc2c(C(F)(F)F)cc(-c3ccoc3)cn2c1Cl)N1CC=C(c2cc(F)ccn2)CC1` [Compound 209, (3-Chloro-6-furan-3-yl-8-trifluoromethyl-imidazo[1,2-a]pyridin-2-yl)-(4-fluoro-3′,6′-dihydro-2′H-[2,4′]bipyridinyl-1′-yl)-methanone] yielded a pEC50 of 6.40. Work on `O=C(c1nc2c(C(F)(F)F)cc(-c3ccoc3)cn2c1Cl)N1CC=C(c2ccccn2)CC1` [Compound 210, (3-Chloro-6-furan-3-yl-8-trifluoromethyl-imidazo[1,2-a]pyridin-2-yl)-(3′,6′-dihydro-2′H-[2,4′]bipyridinyl-1′-yl)-methanone] yielded a pEC50 of 6.32. Work on `N#Cc1cccnc1C1=CCN(C(=O)c2nc3c(C(F)(F)F)cc(-c4ccoc4)cn3c2Cl)CC1` [Compound 211, 1′-(3-Chloro-6-furan-3-yl-8-trifluoromethyl-imidazo[1,2-a]pyridine-2-carbonyl)-1′,2′,3′,6′-tetrahydro-[2,4′]bipyridinyl-3-carbonitrile] yielded a pEC50 of 5.83. With `O=C(c1nc2c(C(F)(F)F)cc(-c3ccoc3)cn2c1Cl)N1CC=C(/C=C/C2CC2)CC1` [Compound 212, (3-Chloro-6-furan-3-yl-8-trifluoromethyl-imidazo[1,2-a]pyridin-2-yl)-[4-(2-cyclopropyl-vinyl)-3,6-dihydro-2H-pyridin-1-yl]-methanone] the pEC50 was 6.47. For `O=C(c1nc2c(C(F)(F)F)cc(-c3ccoc3)cn2c1Cl)N1CC=C(C2=CCNC2)CC1` [Compound 213, (3-Chloro-6-furan-3-yl-8-trifluoromethyl-imidazo[1,2-a]pyridin-2-yl)-[4-(2,5-dihydro-1H-pyrrol-3-yl)-3,6-dihydro-2H-pyridin-1-yl]-methanone], the pEC50 was 6.03. `O=C(c1nc2c(C(F)(F)F)cc(-c3ccccc3)cn2c1Cl)N1CC=C(c2nccs2)C1` [Compound 215, (3-Chloro-6-phenyl-8-trifluoromethyl-imidazo[1,2-a]pyridin-2-yl)-(3-thiazol-2-yl-2,5-dihydro-pyrrol-1-yl)-methanone] gave a pEC50 of 7.49. For `O=C(c1nc2c(C(F)(F)F)cc(-c3cccnc3)cn2c1Cl)N1CC=C(c2nccs2)C1` [Compound 216, (3-Chloro-6-pyridin-3-yl-8-trifluoromethyl-imidazo[1,2-a]pyridin-2-yl)-(3-thiazol-2-yl-2,5-dihydro-pyrrol-1-yl)-methanone], the pEC50 was 6.96. `O=C(c1nc2c(C(F)(F)F)cc(C3=CCCCC3)cn2c1Cl)N1CC=C(c2nccs2)C1` [Compound 217, (3-Chloro-6-cyclohex-1-enyl-8-trifluoromethyl-imidazo[1,2-a]pyridin-2-yl)-(3-thiazol-2-yl-2,5-dihydro-pyrrol-1-yl)-methanone] gave a pEC50 of 7.30. For `O=C(c1nc2c(C(F)(F)F)cc(C3=CCNCC3)cn2c1Cl)N1CC=C(c2nccs2)C1` [Compound 218, [3-Chloro-6-(1,2,3,6-tetrahydro-pyridin-4-yl)-8-trifluoromethyl-imidazo[1,2-a]pyridin-2-yl]-(3-thiazol-2-yl-2,5-dihydro-pyrrol-1-yl)-methanone], the pEC50 was 5.70. For `O=C(c1nc2c(C(F)(F)F)cc(-c3ccoc3)cn2c1Cl)N1CCC(c2ncccc2F)CC1` [Compound 219, (3-Chloro-6-furan-3-yl-8-trifluoromethyl-imidazo[1,2-a]pyridin-2-yl)-(3-fluoro-3′,4′,5′,6′-tetrahydro-2′H-[2,4′]bipyridinyl-1′-yl)-methanone], the pEC50 was 7.19.
